Assay results as given in patent publication US20240335420A1, “N-ACYLHYDRAZONE COMPOUNDS CAPABLE OF INHIBITING NAV 1.7 AND/OR NAV 1.8, PROCESSES FOR THE PREPARATION THEREOF, COMPOSITIONS, USES, METHODS FOR TREATMENT USING SAME AND KITS” (EUROFARMA LABORATÓRIOS S.A., priority 2021, published 2024).

How the values were obtained:
[1] = molecular target: human sodium channels Nav 1.8 (Homo sapiens (Human), UniProt Q9Y5Y9); test: Automated whole-cell voltage-clamp (ScreenPatch 384P), Nav 1.8 sodium current, Protocol 1; format: cell-based; settings: CHO cells expressing human Nav 1.8; for IC50: Protocol 1 (holding −90 mV, 0.1 Hz), room temperature, read-out: Nav1.8 IC50; for inhibition at 10 µM: Protocol 1, read-out: Nav1.8 percent of inhibition (IC50 value not available)
Method: (§1) Biological assays were performed on Chinese hamster ovary (CHO) cells expressing the human sodium channels Nav 1.8 and Nav 1.7 stably.
(§2) The experimental voltage-clamp protocol using the whole cell configuration was established on the automated ScreenPatch® 384P platform (SP384PE, Nanion Technologies, Livingston, NJ) and recording of the results was performed with a Nanion 384-well Patch Clamp chip (NPC) (Nanion Technologies, Livingston, NJ).
(§3) Compounds of Formula (I), were diluted in eight concentrations in the extracellular solution composed of physiological saline, buffered with HEPES (mM): NaCl, 137; KCl, 4; CaCl2, 3.8; MgCl2, 1; HEPES, 10; Glucose, 10; pH 7.4. The […], 50; CsF, 90; MgCl2, 5; EGTA, 5; HEPES, 10; pH 7.2. The duration of exposure of each compound with the cells expressing Nav 1.7 or Nav 1.8 was at least five minutes and the assays were performed at room temperature.
(§4) The measurements of the sodium currents of Nav 1.8 and Nav 1.7 were obtained using the voltage protocols described below: • Protocol 1: A holding voltage of −90 mV was established followed by a voltage phase of 200 ms to −120 mV, followed by a voltage step of 10 mV for 1 second for Nav 1.8 or 0 mV for Nav 1.7, followed by a step of −100 mV for 20 ms, followed by a step of 20 ms for 10 mV for Nav 1.8 or 0 mV for Nav 1.7 (TP1A) before returning to the holding voltage of −90 mV. • Protocol 2: A holding voltage of −100 mV was established followed by an inactivation voltage step at −40 mV for 8 seconds, followed by a −100 mV step for […], followed by a 20 ms step for 10 mV for Nav 1.8 or 0 mV for Nav 1.7 (TP1A) before returning to the holding voltage of −100 mV.
(§5) Protocols were repeated at a frequency of 0.1 Hz (Protocol 1) or 0.05 Hz (Protocol 2) and current amplitude was quantified over the TP1A phase log. The variation in the peak amplitude of the current was evaluated according to the Formula described below, after exposure of the cells expressing the channels, at each concentration of the different compounds:
(§6) [formula] • where |TP1A, basal, and |TP1A, molecule represent the entry peaks of sodium currents into TP1A prior to exposure to the compound and in the presence of the compound, respectively.
(§7) The decrease in peak current amplitude, after exposure of the cells to the compounds, was used to calculate the percent relative blocking of the channels relative to the positive control according to the Formula below:
(§8) [formula] • where % V and % CP represent the averages of the values of current inhibition with a vehicle (DMSO) and positive controls, respectively. The sodium currents of the positive control were considered as 100%.
(§9) [formula] • where [Test] represents the concentration of the evaluated molecule, IC50 is the concentration of the compound that generates half of the maximum inhibition, N is the Hill's coefficient and % Block′ is the percentage of the sodium channel current (Nav 1.8 and Nav 1.7) inhibited at each concentration of the evaluated molecule. Data were obtained by non-linear least squares regression with XLfit for Excel (Microsoft, Redmond, WA).
(§10) Compounds were tested in at least one assay to obtain the IC50 value.

[2] = molecular target: human sodium channels Nav 1.7 (Homo sapiens (Human), UniProt Q15858); test: Automated whole-cell voltage-clamp (ScreenPatch 384P), Nav 1.7 sodium current, Protocol 1; format: cell-based; settings: CHO cells expressing human Nav 1.7; for IC50: Protocol 1 (holding −90 mV, 0.1 Hz), room temperature, read-out: Nav1.7 IC50; for inhibition at 10 µM: Protocol 1, read-out: Nav1.7 percent of inhibition (IC50 value not available)
Method: as §1, §2, §3, §4, §5, §6, §7, §8, §9, §10

human sodium channels Nav 1.8, sequence (Q9Y5Y9 whole entry): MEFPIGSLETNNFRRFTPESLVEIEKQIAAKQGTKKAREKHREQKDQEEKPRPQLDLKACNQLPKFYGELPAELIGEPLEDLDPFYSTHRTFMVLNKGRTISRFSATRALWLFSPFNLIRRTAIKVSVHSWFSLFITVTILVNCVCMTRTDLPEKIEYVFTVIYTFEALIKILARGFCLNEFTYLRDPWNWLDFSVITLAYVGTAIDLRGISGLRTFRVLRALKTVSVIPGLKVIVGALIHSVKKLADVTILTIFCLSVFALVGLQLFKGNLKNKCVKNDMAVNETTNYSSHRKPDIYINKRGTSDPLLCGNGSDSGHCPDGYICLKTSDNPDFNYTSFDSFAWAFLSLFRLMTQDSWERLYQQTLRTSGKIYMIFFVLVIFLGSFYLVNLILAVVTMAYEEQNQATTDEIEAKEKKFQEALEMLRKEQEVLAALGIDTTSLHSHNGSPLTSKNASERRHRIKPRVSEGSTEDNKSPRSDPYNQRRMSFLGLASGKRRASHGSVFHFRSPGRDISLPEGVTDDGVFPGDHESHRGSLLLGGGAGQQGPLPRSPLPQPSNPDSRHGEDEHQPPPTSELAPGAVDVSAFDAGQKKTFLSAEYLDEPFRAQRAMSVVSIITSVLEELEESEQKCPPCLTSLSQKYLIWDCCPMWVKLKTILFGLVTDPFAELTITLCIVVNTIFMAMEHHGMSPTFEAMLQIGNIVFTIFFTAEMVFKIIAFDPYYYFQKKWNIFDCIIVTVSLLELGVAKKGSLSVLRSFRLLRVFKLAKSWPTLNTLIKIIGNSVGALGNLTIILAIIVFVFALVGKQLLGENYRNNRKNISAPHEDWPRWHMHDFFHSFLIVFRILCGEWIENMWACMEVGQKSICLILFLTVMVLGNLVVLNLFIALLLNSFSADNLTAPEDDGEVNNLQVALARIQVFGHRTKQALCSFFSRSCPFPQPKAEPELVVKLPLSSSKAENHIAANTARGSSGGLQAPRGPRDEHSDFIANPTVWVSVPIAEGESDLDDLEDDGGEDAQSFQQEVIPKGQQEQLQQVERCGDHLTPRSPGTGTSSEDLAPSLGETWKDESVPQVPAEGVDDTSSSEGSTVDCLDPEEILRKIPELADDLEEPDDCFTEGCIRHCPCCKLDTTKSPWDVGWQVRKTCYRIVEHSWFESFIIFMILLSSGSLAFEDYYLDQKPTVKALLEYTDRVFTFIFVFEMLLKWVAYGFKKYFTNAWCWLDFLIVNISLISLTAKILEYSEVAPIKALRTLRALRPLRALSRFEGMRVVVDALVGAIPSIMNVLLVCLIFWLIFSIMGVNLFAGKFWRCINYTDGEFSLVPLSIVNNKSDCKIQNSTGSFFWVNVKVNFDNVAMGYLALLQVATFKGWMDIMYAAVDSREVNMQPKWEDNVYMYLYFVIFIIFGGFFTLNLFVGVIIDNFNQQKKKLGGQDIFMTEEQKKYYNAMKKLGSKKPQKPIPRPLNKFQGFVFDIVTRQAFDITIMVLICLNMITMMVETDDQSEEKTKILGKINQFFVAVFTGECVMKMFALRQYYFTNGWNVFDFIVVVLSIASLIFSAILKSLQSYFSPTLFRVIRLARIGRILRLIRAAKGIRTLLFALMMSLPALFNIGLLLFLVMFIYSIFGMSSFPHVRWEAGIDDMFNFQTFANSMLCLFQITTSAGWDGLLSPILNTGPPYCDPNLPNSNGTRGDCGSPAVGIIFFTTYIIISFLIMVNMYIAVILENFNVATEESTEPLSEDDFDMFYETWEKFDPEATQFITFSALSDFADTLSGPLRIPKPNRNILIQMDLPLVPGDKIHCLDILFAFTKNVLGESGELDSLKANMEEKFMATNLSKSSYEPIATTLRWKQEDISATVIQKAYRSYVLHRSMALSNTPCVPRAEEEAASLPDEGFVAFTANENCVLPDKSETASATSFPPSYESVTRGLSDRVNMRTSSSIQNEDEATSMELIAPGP
human sodium channels Nav 1.7, sequence (Q15858 whole entry): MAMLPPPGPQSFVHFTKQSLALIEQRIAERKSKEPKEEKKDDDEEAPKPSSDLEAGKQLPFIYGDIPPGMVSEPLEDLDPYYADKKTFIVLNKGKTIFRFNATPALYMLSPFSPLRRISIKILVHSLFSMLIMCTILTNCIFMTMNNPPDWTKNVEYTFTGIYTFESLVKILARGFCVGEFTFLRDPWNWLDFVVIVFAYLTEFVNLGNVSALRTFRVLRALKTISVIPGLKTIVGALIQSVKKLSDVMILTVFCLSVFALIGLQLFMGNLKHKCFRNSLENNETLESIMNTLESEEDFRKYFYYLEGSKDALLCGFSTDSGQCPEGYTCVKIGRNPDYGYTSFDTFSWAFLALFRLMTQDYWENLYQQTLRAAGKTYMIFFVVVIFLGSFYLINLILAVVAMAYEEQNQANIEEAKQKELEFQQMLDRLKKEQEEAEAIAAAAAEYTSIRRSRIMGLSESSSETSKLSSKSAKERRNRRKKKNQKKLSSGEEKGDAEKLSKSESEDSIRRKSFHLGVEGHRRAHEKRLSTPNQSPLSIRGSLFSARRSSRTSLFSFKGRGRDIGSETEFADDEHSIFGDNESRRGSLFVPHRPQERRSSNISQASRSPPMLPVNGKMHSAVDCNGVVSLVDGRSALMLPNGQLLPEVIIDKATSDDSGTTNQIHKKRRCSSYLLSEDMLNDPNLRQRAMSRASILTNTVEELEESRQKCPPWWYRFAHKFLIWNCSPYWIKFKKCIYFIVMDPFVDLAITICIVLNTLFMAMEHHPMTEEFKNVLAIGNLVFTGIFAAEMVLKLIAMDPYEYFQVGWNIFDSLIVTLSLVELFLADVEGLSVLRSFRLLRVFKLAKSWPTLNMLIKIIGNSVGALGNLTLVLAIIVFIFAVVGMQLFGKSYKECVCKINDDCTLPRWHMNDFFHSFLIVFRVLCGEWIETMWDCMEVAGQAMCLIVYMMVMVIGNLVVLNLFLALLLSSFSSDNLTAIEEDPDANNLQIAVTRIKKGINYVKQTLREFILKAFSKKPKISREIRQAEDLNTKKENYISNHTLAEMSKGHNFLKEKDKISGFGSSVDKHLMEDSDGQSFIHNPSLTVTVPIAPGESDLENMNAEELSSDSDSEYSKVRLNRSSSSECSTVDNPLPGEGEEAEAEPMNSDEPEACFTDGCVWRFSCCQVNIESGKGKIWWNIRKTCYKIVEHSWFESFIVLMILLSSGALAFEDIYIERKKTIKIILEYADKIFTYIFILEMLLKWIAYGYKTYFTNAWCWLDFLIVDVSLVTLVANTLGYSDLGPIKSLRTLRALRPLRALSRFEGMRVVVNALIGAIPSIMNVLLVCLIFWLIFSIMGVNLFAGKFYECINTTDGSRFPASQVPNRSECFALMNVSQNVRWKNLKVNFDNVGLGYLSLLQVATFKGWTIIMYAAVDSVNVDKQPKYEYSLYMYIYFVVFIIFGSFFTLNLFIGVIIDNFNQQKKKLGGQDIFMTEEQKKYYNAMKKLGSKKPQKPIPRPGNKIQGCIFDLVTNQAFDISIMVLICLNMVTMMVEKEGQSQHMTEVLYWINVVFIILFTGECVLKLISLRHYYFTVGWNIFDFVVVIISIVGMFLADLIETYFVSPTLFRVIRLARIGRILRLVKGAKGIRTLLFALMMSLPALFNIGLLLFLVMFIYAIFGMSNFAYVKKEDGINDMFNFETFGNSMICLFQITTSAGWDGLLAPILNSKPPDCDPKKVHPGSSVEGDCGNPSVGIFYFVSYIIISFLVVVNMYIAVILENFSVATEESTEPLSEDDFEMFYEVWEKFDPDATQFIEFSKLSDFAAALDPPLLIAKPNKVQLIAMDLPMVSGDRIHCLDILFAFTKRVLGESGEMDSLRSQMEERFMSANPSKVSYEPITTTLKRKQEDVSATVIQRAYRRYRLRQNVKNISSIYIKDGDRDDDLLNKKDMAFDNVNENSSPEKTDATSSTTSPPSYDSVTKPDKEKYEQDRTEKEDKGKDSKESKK

COc1cc(/C=N/NC(=O)c2ccc(-c3ccc(Cl)cc3)o2)cc(OC)c1 [Compound 2, (E)-5-(4-chlorophenyl)-N′-(3,5-dimethoxybenzylidene) furan-2-carbohydrazide]
IC50 [1]: > 30 µM
IC50 [2]: > 30 µM

CCOc1ccc(-c2ccc(C(=O)N/N=C/c3cccs3)o2)cc1 [Compound 3, (E)-5-(4-ethoxyphenyl)-N′-(thiophen-2-ylmethylene) furan-2-carbohydrazide]
IC50 [1]: > 30 µM
IC50 [2]: > 30 µM

CCOc1ccc(-c2ccc(C(=O)N/N=C/c3cccnc3N3CCOCC3)o2)cc1 [Compound 4, (E)-5-(4-ethoxyphenyl)-N′-((2-morpholinopyridin-3-yl)methylene) furan-2-carbohydrazide]
inhibition at 10 µM [1]: < 10%
inhibition at 10 µM [2]: < 10%

CCOc1ccc(-c2ccc(C(=O)N/N=C/c3cc(CN(C)C)cs3)o2)cc1 [Compound 5, (E)-N′-((4-((dimethylamino)methyl)thiophen-2-yl)methylene)-5-(4-ethoxyphenyl) furan-2-carbohydrazide]
inhibition at 10 µM [1]: < 10%
inhibition at 10 µM [2]: < 10%

CCOc1ccc(-c2ccc(C(=O)N/N=C/c3cccnc3)o2)cc1 [Compound 6, (E)-5-(4-ethoxyphenyl)-N′-(pyridin-3-ylmethylene) furan-2-carbohydrazide]
inhibition at 10 µM [1]: < 10%
inhibition at 10 µM [2]: < 10%

CC(C)Oc1ccc(-c2ccc(C(=O)N/N=C/c3cccs3)o2)cc1 [Compound 7, (E)-5-(4-isopropoxyphenyl)-N′-(thiophen-2-ylmethylene) furan-2-carbohydrazide]
IC50 [1]: > 6.27 µM
IC50 [2]: > 16.7 µM

CC(C)Oc1ccc(-c2ccc(C(=O)N/N=C/c3cc(CN(C)C)cs3)o2)cc1 [Compound 8, (E)-N′-((4-((dimethylamino)methyl)thiophen-2-yl)methylene)-5-(4-isopropoxyphenyl) furan-2-carbohydrazide]
inhibition at 10 µM [1]: < 10%
inhibition at 10 µM [2]: < 10%

O=C(N/N=C/c1cccs1)c1ccc(-c2ccc(OCCN3CCOCC3)cc2)o1 [Compound 9, (E)-5-(4-(2-morpholinoethoxy)phenyl)-N′-(thiophen-2-ylmethylene) furan-2-carbohydrazide]
inhibition at 10 µM [1]: < 10%
inhibition at 10 µM [2]: < 10%

O=C(N/N=C/c1cccs1)c1cccc(-c2ccc(Cl)cc2)n1 [Compound 11, (E)-6-(4-chlorophenyl)-N′-(thiophen-2-ylmethylene) picolinohydrazide]
IC50 [1]: 8.58 µM
IC50 [2]: 12 µM

CCOc1ccc(-c2cccc(C(=O)N/N=C/c3cccs3)n2)cc1 [Compound 12, (E)-6-(4-ethoxyphenyl)-N′-(thiophen-2-ylmethylene) picolinohydrazide]
IC50 [1]: 3.21 µM
IC50 [2]: 1.89 µM

CC(C)Oc1ccc(-c2cccc(C(=O)N/N=C/c3cccs3)n2)cc1 [Compound 13, (E)-6-(4-isopropoxyphenyl)-N′-(thiophen-2-ylmethylene) picolinohydrazide]
inhibition at 10 µM [1]: < 10%
inhibition at 10 µM [2]: < 10%

COc1cc(/C=N/NC(=O)c2cncc(-c3ccc(Cl)cc3)c2)cc(OC)c1 [Compound 16, (E)-5-(4-chlorophenyl)-N′-(3,5-dimethoxybenzylidene) nicotinohydrazide]
IC50 [1]: 4.25 µM
IC50 [2]: 4.12 µM

COc1cc(/C=N/NC(=O)c2cncc(-c3ccc(OC(F)(F)F)cc3)c2)cc(OC)c1 [Compound 17, (E)-N′-(3,5-dimethoxybenzylidene)-5-(4-(trifluoromethoxy)phenyl) nicotinohydrazide]
IC50 [1]: 6.83 µM
IC50 [2]: 7.09 µM

CCOc1ccc(-c2cncc(C(=O)N/N=C/c3cc(OC)cc(OC)c3)c2)cc1 [Compound 18, (E)-N′-(3,5-dimethoxybenzylidene)-5-(4-ethoxyphenyl) nicotinohydrazide]
IC50 [1]: 6.83 µM
IC50 [2]: 7.09 µM

COc1cc(/C=N/NC(=O)c2cncc(-c3ccc(OC(C)C)cc3)c2)cc(OC)c1 [Compound 19, (E)-N′-(3,5-dimethoxybenzylidene)-5-(4-isopropoxyphenyl) nicotinohydrazide]
IC50 [1]: 5.9 µM
IC50 [2]: 5.72 µM

COc1cc(/C=N/NC(=O)c2ccnc(-c3ccc(Cl)cc3)c2)cc(OC)c1 [Compound 20, (E)-2-(4-chlorophenyl)-N′-(3,5-dimethoxybenzylidene) isonicotinohydrazide]
inhibition at 10 µM [1]: < 10%
inhibition at 10 µM [2]: < 10%

COc1cc(/C=N/NC(=O)c2ccnc(-c3ccc(OC(F)(F)F)cc3)c2)cc(OC)c1 [Compound 21, (E)-N′-(3,5-dimethoxybenzylidene)-2-(4-(trifluoromethoxy)phenyl) isonicotinohydrazide]
inhibition at 10 µM [1]: < 10%
inhibition at 10 µM [2]: < 10%

CCOc1ccc(-c2cc(C(=O)N/N=C/c3cc(OC)cc(OC)c3)ccn2)cc1 [Compound 22, (E)-N′-(3,5-dimethoxybenzylidene)-2-(4-ethoxyphenyl) isonicotinohydrazide]
IC50 [1]: > 10 µM
IC50 [2]: > 10 µM

COc1cc(/C=N/NC(=O)c2ccnc(-c3ccc(OC(C)C)cc3)c2)cc(OC)c1 [Compound 23, (E)-N′-(3,5-dimethoxybenzylidene)-2-(4-isopropoxyphenyl) isonicotinohydrazide]
IC50 [1]: > 10 µM
IC50 [2]: > 10 µM

COc1cc(/C=N/NC(=O)c2cccc(-c3ccc(OC(C)C)cc3)n2)cc(OC)c1 [Compound 24, (E)-N′-(3,5-dimethoxybenzylidene)-6-(4-isopropoxyphenyl) picolinohydrazide]
IC50 [1]: 5.9 µM
IC50 [2]: 5.72 µM

COc1ccc(-c2cncc(C(=O)N/N=C/c3cc(OC)cc(OC)c3)c2)cc1 [Compound 25, (E)-N′-(3,5-dimethoxybenzylidene)-5-(4-methoxyphenyl) nicotinohydrazide]
IC50 [1]: > 10 µM
IC50 [2]: > 10 µM

CCCOc1ccc(-c2cncc(C(=O)N/N=C/c3cc(OC)cc(OC)c3)c2)cc1 [Compound 26, (E)-N′-(3,5-dimethoxybenzylidene)-5-(4-propoxyphenyl) nicotinohydrazide]
IC50 [1]: > 10 µM
IC50 [2]: 3.5 µM

CCCCOc1ccc(-c2cncc(C(=O)N/N=C/c3cc(OC)cc(OC)c3)c2)cc1 [Compound 27, (E)-5-(4-butoxyphenyl)-N′-(3,5-dimethoxybenzylidene) nicotinohydrazide]
IC50 [1]: > 10 µM
IC50 [2]: > 10 µM

COc1cc(/C=N/NC(=O)c2cncc(-c3ccc(OC4CCCC4)cc3)c2)cc(OC)c1 [Compound 28, (E)-5-(4-(cyclopentyloxy)phenyl)-N′-(3,5-dimethoxybenzylidene) nicotinohydrazide]
IC50 [1]: > 10 µM
IC50 [2]: > 10 µM

COc1ccc(-c2cc(C(=O)N/N=C/c3cc(OC)cc(OC)c3)ccn2)cc1 [Compound 29, (E)-N′-(3,5-dimethoxybenzylidene)-2-(4-methoxyphenyl) isonicotinohydrazide]
IC50 [1]: > 10 µM
IC50 [2]: > 10 µM

CCCOc1ccc(-c2cc(C(=O)N/N=C/c3cc(OC)cc(OC)c3)ccn2)cc1 [Compound 30, (E)-N′-(3,5-dimethoxybenzylidene)-2-(4-propoxyphenyl) isonicotinohydrazide]
IC50 [1]: > 10 µM
IC50 [2]: > 10 µM

CCOc1ccc(-c2cccc(C(=O)N/N=C/c3ccccc3F)n2)cc1 [Compound 32, (E)-6-(4-ethoxyphenyl)-N′-(2-fluorobenzylidene) picolinohydrazide]
IC50 [1]: 1.36 µM
IC50 [2]: 1.04 µM

CCOc1ccc(-c2cccc(C(=O)N/N=C/c3ccccc3Cl)n2)cc1 [Compound 33, (E)-N′-(2-chlorobenzylidene)-6-(4-ethoxyphenyl) picolinohydrazide]
IC50 [1]: > 10 µM
IC50 [2]: > 10 µM
